Test system: Sub-Populations of Crohn's Disease Patients
Test: CD-LAQ-201 sub-populations of Crohn's disease patients (Example 2)
Type: in vivo, human
Settings: for Remission - N (%): % / Remission - N (%): N: week 8
Protocol: This study was conducted according and with similar requirements as presented in Example 1. […] Patients, who have received anti-TNFαs in the past, tend to reflect a more severe, refractory segment of the Crohn's disease population. […] This sub-cohort analysis describes remission rates at week 8 for patients who were classified as having a predominantly inflammatory disease (based on the Montreal classifications) versus those that have a fibrostenotic or penetrating disease.

[1] = Laq 0.5 mg, Oral steroids on Baseline NO
[2] = Laq 0.5 mg, Oral steroids on Baseline YES
[3] = Laq 0.5 mg, Previous Operations NO
[4] = Laq 0.5 mg, Previous Operations YES
[5] = Laq 0.5 mg, Previous use of anti-TNFαs NO
[6] = Laq 0.5 mg, Previous use of anti-TNFαs YES
[7] = Laq 1.0 mg, Oral steroids on Baseline NO
[8] = Laq 1.0 mg, Oral steroids on Baseline YES
[9] = Laq 1.0 mg, Previous Operations NO
[10] = Laq 1.0 mg, Previous Operations YES
[11] = Laq 1.0 mg, Previous use of anti-TNFαs NO
[12] = Laq 1.0 mg, Previous use of anti-TNFαs YES

## CCN(C(=O)c1c(O)c2c(Cl)cccc2n(C)c1=O)c1ccccc1 [laquinimod]
0.5 mg
  effect on remission at week 8 with or without previous anti-TNFαs: remains robust on both sub-populations
0.5 mg or 1 mg
  effect on remission at week 8 in fibrostenotic or penetrating disease: no effect
0.5 mg/day laquinimod
  effectiveness in anti-TNF refractory patients (FIG. 1): robustly effective
1 mg/day laquinimod
  effectiveness in anti-TNF refractory patients (FIG. 1): effective relative to placebo
Laq 0.5 mg, Fibrostenotic
  CDAI Change from Baseline - Mean ± SD: −9.3
  Responders70 - N (%): %: 42.9%
  Responders70 - N (%): N: 3
  Responders100 - N (%): %: 28.6%
  Responders100 - N (%): N: 2
  Remission - N (%): %: 14.3%
  Remission - N (%): N: 1
Laq 0.5 mg, Inflammatory
  CDAI Change from Baseline - Mean ± SD: −125.1
  Responders70 - N (%): %: 68.2%
  Responders70 - N (%): N: 15
  Responders100 - N (%): %: 63.6%
  Responders100 - N (%): N: 14
  Remission - N (%): %: about 60%
  Remission - N (%): N: 13
Laq 0.5 mg, Inflammatory, listed as Laq
  Remission - N (%): %: 59.1%
[1]
  CDAI Change from Baseline - Mean ± SD: −85.3
  Responders70 - N (%): %: 57.9%
  Responders70 - N (%): N: 11
  Responders100 - N (%): %: 47.4%
  Responders100 - N (%): N: 9
  Remission - N (%): %: about 40%
  Remission - N (%): N: 8
Laq 0.5 mg, Oral steroids on Baseline NO, listed as Laq
  Remission - N (%): %: 42.1%
[2]
  CDAI Change from Baseline - Mean ± SD: −119.8
  Responders70 - N (%): %: 70.0%
  Responders70 - N (%): N: 7
  Responders100 - N (%): %: 70.0%
  Responders100 - N (%): N: 7
  Remission - N (%): %: approximately 60%
  Remission - N (%): N: 6
Laq 0.5 mg, Oral steroids on Baseline YES, listed as Laq
  Remission - N (%): %: 60.0%
[3]
  CDAI Change from Baseline - Mean ± SD: −118.1
  Responders70 - N (%): %: 62.5%
  Responders70 - N (%): N: 15
  Responders100 - N (%): %: 58.3%
  Responders100 - N (%): N: 14
  Remission - N (%): %: higher than 50%
  Remission - N (%): N: 13
Laq 0.5 mg, Previous Operations NO, listed as Laq
  Remission - N (%): %: 54.2%
[4]
  CDAI Change from Baseline - Mean ± SD: 3.2
  Responders70 - N (%): %: 60.0%
  Responders70 - N (%): N: 3
  Responders100 - N (%): %: 40.0%
  Responders100 - N (%): N: 2
  Remission - N (%): %: 20.0%
  Remission - N (%): N: 1
[5]
  CDAI Change from Baseline - Mean ± SD: −88.2
  Responders70 - N (%): %: 63.6%
  Responders70 - N (%): N: 7
  Responders100 - N (%): %: 54.5%
  Responders100 - N (%): N: 6
  Remission - N (%): %: 54.5%
  Remission - N (%): N: 6
[6]
  CDAI Change from Baseline - Mean ± SD: −102.7
  Responders70 - N (%): %: 61.1%
  Responders70 - N (%): N: 11
  Responders100 - N (%): %: 55.6%
  Responders100 - N (%): N: 10
  Remission - N (%): %: 44.4%
  Remission - N (%): N: 8
Laq 1.0 mg, Fibrostenotic
  CDAI Change from Baseline - Mean ± SD: −65.8
  Responders70 - N (%): %: 41.7%
  Responders70 - N (%): N: 5
  Responders100 - N (%): %: 41.7%
  Responders100 - N (%): N: 5
  Remission - N (%): %: 16.7%
  Remission - N (%): N: 2
Laq 1.0 mg, Inflammatory
  CDAI Change from Baseline - Mean ± SD: −76.7
  Responders70 - N (%): %: 61.1%
  Responders70 - N (%): N: 11
  Responders100 - N (%): %: 38.9%
  Responders100 - N (%): N: 7
  Remission - N (%): %: 33.3%
  Remission - N (%): N: 6
[7]
  CDAI Change from Baseline - Mean ± SD: −59.4
  Responders70 - N (%): %: 50.0%
  Responders70 - N (%): N: 9
  Responders100 - N (%): %: 33.3%
  Responders100 - N (%): N: 6
  Remission - N (%): %: 22.2%
  Remission - N (%): N: 4
[8]
  CDAI Change from Baseline - Mean ± SD: −93.5
  Responders70 - N (%): %: 58.3%
  Responders70 - N (%): N: 7
  Responders100 - N (%): %: 50.0%
  Responders100 - N (%): N: 6
  Remission - N (%): %: 33.3%
  Remission - N (%): N: 4
[9]
  CDAI Change from Baseline - Mean ± SD: −77.9
  Responders70 - N (%): %: 55.6%
  Responders70 - N (%): N: 10
  Responders100 - N (%): %: 38.9%
  Responders100 - N (%): N: 7
  Remission - N (%): %: 33.3%
  Remission - N (%): N: 6
[10]
  CDAI Change from Baseline - Mean ± SD: −66.0
  Responders70 - N (%): %: 50.0%
  Responders70 - N (%): N: 6
  Responders100 - N (%): %: 41.7%
  Responders100 - N (%): N: 5
  Remission - N (%): %: 16.7%
  Remission - N (%): N: 2
[11]
  CDAI Change from Baseline - Mean ± SD: −38.5
  Responders70 - N (%): %: 27.3%
  Responders70 - N (%): N: 3
  Responders100 - N (%): %: 27.3%
  Responders100 - N (%): N: 3
  Remission - N (%): %: 18.2%
  Remission - N (%): N: 2
[12]
  CDAI Change from Baseline - Mean ± SD: −36.8
  Responders70 - N (%): %: 27.8%
  Responders70 - N (%): N: 5
  Responders100 - N (%): %: 27.8%

Source: patent US9161935B2 (TEVA PHARMACEUTICAL INDUSTRIES, LTD., priority 2012, dated 2015)
